Experiments:
Assay in all cases: relative viability (nuclei count vs DMSO), 5 days (fraction); higher = more cells survive
Quizartinib + Foretinib = compound: CC(C)(C)c1cc(NC(=O)Nc2ccc(-c3cn4c(n3)sc3cc(OCCN5CCOCC5)ccc34)cc2)no1 [Quizartinib] + COc1cc2c(Oc3ccc(NC(=O)C4(C(=O)Nc5ccc(F)cc5)CC4)cc3F)ccnc2cc1OCCCN1CCOCC1 [Foretinib] (partner 0.25 µM)
Procedure, shortened: (§1)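 One day after seeding in 1536-well plates, lung cancer cell lines were dosed by pin tool. Dosing was either single-drug or a fixed anchor-drug dose plus five library-drug doses (not always all listed) in √10 steps. After 5 days, nuclei were stained in one fix-and-stain step and counted on 4× images, and relative viability is the nuclei count of treated wells over that of vehicle wells, given as the median of duplicate plates.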

Quizartinib + Lapatinib = compound: CC(C)(C)c1cc(NC(=O)Nc2ccc(-c3cn4c(n3)sc3cc(OCCN5CCOCC5)ccc34)cc2)no1 [Quizartinib] + CS(=O)(=O)CCNCc1ccc(-c2ccc3ncnc(Nc4ccc(OCc5cccc(F)c5)c(Cl)c4)c3c2)o1 [Lapatinib] (partner 2 µM)
Procedure, shortened: as §1

YM155 + OSI-027 = compound: COCC[n+]1c2c(n(Cc3cnccn3)c1C)C(=O)c1ccccc1C2=O [YM155] + COc1cccc2cc(-c3nc([C@H]4CC[C@H](C(=O)O)CC4)n4ncnc(N)c34)[nH]c12 [OSI-027] (partner 0.5 µM)
Procedure, shortened: as §1

YM155 + AZD7762 = compound: COCC[n+]1c2c(n(Cc3cnccn3)c1C)C(=O)c1ccccc1C2=O [YM155] + NC(=O)Nc1cc(-c2cccc(F)c2)sc1C(=O)N[C@H]1CCCNC1 [AZD7762] (partner 0.2 µM)
Procedure, shortened: as §1

Cell Line | relative viability (Quizartinib + Foretinib; first compound 0.001 µM) | relative viability (Quizartinib + Foretinib; first compound 0.003162 µM) | relative viability (Quizartinib + Foretinib; first compound 0.01 µM) | relative viability (Quizartinib + Foretinib; first compound 0.03162 µM) | relative viability (Quizartinib + Foretinib; first compound 0.1 µM) | relative viability (Quizartinib + Lapatinib; first compound 0.001 µM) | relative viability (Quizartinib + Lapatinib; first compound 0.003162 µM) | relative viability (Quizartinib + Lapatinib; first compound 0.01 µM) | relative viability (Quizartinib + Lapatinib; first compound 0.03162 µM) | relative viability (Quizartinib + Lapatinib; first compound 0.1 µM) | relative viability (YM155 + OSI-027; first compound 0.002 µM) | relative viability (YM155 + OSI-027; first compound 0.006325 µM) | relative viability (YM155 + OSI-027; first compound 0.02 µM) | relative viability (YM155 + OSI-027; first compound 0.06325 µM) | relative viability (YM155 + AZD7762; first compound 0.002 µM) | relative viability (YM155 + AZD7762; first compound 0.006325 µM) | relative viability (YM155 + AZD7762; first compound 0.02 µM) | relative viability (YM155 + AZD7762; first compound 0.06325 µM)
HCC-827 | 1.02 | 0.922 | 1.07 | 1.06 | 1.07 | 0.196 | 0.22 | 0.19 | 0.164 | 0.214 | 0.678 | 0.805 | 0.76 | 0.842 | 0.224 | 0.293 | 0.239 | 0.241
HOP-62 | 0.907 | 1.09 | 1.22 | 1.07 | 1.09 | 0.745 | 0.957 | 0.993 | 0.978 | 0.888 | 0.807 | 0.847 | 0.899 | 0.864 | 0.484 | 0.427 | 0.902 | 0.43
IA-LM | 1.05 | 1.01 | 1.17 | 1.14 | 1.02 | 0.983 | 0.718 | 0.86 |  | 0.719 |  |  |  |  |  |  |  | 
LC-2-ad | 0.883 | 0.857 | 0.977 |  | 0.904 | 0.791 | 0.883 | 0.724 | 0.839 | 0.607 | 0.804 | 0.917 | 0.773 | 0.621 | 0.8 | 0.842 | 0.854 | 0.841
LCLC-103H | 0.786 | 0.7 | 0.8 | 0.788 | 0.995 |  |  |  |  |  | 0.465 | 0.436 | 0.408 | 0.464 | 0.752 | 0.821 | 0.832 | 0.781
NCI-H441 | 1.23 | 0.923 | 1.13 |  | 0.914 |  |  |  |  |  | 0.468 | 0.496 | 0.537 | 0.381 | 0.947 | 1.23 | 1.09 | 0.246
NCI-H520 | 0.81 | 0.636 | 0.894 | 0.722 | 0.541 | 0.649 | 0.766 | 0.828 | 0.85 | 0.591 | 0.244 | 0.242 | 0.29 | 0.326 |  |  |  | 
NCI-H522 |  |  |  |  |  |  |  |  |  |  | 0.752 | 0.599 | 0.715 | 0.753 | 0.699 | 0.854 | 0.961 | 0.991
NCI-H661 | 0.963 | 0.945 | 1.13 | 0.994 | 1.01 | 0.493 | 0.457 | 0.436 | 0.468 | 0.691 | 0.703 | 0.722 | 0.708 | 0.308 |  |  |  | 
NCI-H1299 | 1.06 | 1.05 | 1.14 | 1.05 | 1.12 | 0.983 | 0.932 | 0.956 | 0.922 | 0.903 |  |  |  |  |  |  |  | 
NCI-H1563 | 0.975 | 0.898 | 0.884 | 0.631 | 0.881 | 0.697 | 0.824 | 0.935 |  | 0.897 | 0.752 | 0.754 | 0.652 | 0.741 |  |  |  | 
NCI-H1623 | 0.694 | 0.884 | 0.831 | 0.844 | 0.859 |  |  |  |  |  | 0.469 | 0.456 | 0.471 | 0.701 |  |  |  | 
